From patent US4371534A, “N4-Substituted tetrahydro-1,2,4-oxadiazin-5-one derivatives having anticonvulsive activity and pharmaceutical compositions containing them” (Richter Gedeon Vegyeszeti Gyar RT., priority 1980, dated 1983)
Where two headings read alike, the source gives them in different places.

Legend:
[1] = system: mice (muscle coordination); assay: Neurotoxic activity: muscle coordination (RR) on rotating rod; format: in vivo, CFLP (LATI) mice; conditions: 80 mg/kg p.o., one hour after administration; animals falling from rotating rod within 120 seconds, percentage of control animals
Experimental: (§1) The pharmaceutical activity of the new compounds according to the invention was tested by conventional animal tests. Tests were performed on CFLP (LATI) mice of both sexes weighing 18 to 22 g. each, in groups of 10. Test compounds were suspended in a 5% aqueous "Tween 80" solution and the suspension was administered orally, through a probe. When testing anticonvulsive activity 20 mg./kg. doses, while in the tests concerning neurotoxic activity 80 mg/kg. doses were employed. The induced effect was measured one hour after administration by the following methods:
Muscle coordination (RR) on mice
Change of the coordinated muscular movement was tested according to W. J. Kinnard and C. F. Carr [Brit. J. Pharmacol, 121, 354 (1957)], on a rotating rod (diameter: 20 mm., frequency: 12/min.). Normal trained animals are able to remain on the rotating rod for about 120 seconds.

[2] = system: mice (pentetrazole-induced clonic and tonic, extensor spasm); assay: Inhibition of spasm induced by pentetrazole (PTT); format: in vivo, CFLP (LATI) mice; conditions: Mus musculus, po, 1 h, 20 mg/kg p.o., 125 mg/kg pentetrazole s.c., one hour
Experimental: as §1, with “methods: (b) inhibition of spasm induced by pentetrazole (PTT) According to the method of Cr. N. Everett and R. K. Richards [J. Pharmacol. Exp. Therap. 81, 402 (1944)] 125 mg./kg. of pentatrazole (pentamethylene tetrazole) were administrated to the animals subcutaneously. One hour after administration the animals were observed. Absence of the clonic spasm (Kl) and the tonic, extensor spasm of lower limbs (TE) was considered a protection due to the administration of test compounds.” for “methods:”

[3] = system: mice (tonic, extensor spasm of the lower limbs); assay: Maximum electroshock (MES), anticonvulsive activity; format: in vivo, CFLP (LATI) mice; conditions: Mus musculus, po, 1 h; 20 mg/kg p.o., one hour after administration; corneal electrode 20 mA, 0.2 sec; absence of tonic extensor spasm = protection
Experimental: as §1, with “methods: (a) Maximum electroshock (MES): According to the method of E. A. Swinyard et al. [J. Pharmacol. 106, 319 (1952)] test animals were shocked by a corneal electrode (20 mA, 0.2 sec.). On the stimulation 100% of the control animals reacted by a tonic, extensor spasm of the lower limbs. Absence of this phenomena was considered a protection due to the treatment.” for “methods:”

[4] = system: mice; assay: Acute toxicity (LD50); format: in vivo; conditions: p.o., single doses, evaluation after 14 days, probit analysis
Experimental: as §1
Toxicity of the compounds was examined by administration of various single doses. Evaluation was made 14 days after administration. The LD50 -values were calculated on the basis of the number of animals that died in 14 days by probite analysis, by means of a TPA/101 computer.

[5] = absence of clonic spasm, read-out: PTT Cl
[6] = absence of tonic, extensor spasm of lower limbs, read-out: PTT TE

Compound	RR (muscle incoordination) [1]	responders at 20 mg/kg [2, 5]	responders at 20 mg/kg [2, 6]	responders at 20 mg/kg [3]	LD50 [4]
CC(=O)N1OCC(=O)N(CO)C1c1ccccc1 (centres unmarked) [Example 5, 2-Acetyl-3-phenyl-4-hydroxymethyl-tetrahydro-1,2,4-oxadiazin-5-one]	20%	0%	40%	60%	
CCCCCCN1C(=O)CON(C(C)=O)C1c1ccccc1 (centres unmarked) [Example 14]	0%	0%	40%	0%	
O=C1NC(=O)C(c2ccccc2)(c2ccccc2)N1 [diphenylhydantoine, reference compound]	70%	0%	80%	90%	279 mg/kg
CC(=O)N1OCC(=O)N(CCl)C1c1ccccc1 (centres unmarked) [Example 7, 2-Acetyl-3-phenyl-4-chloromethyl-tetrahydro-1,2,4-oxadiazin-5-one]	40%	0%	0%	40%	
CCC1(c2ccccc2)NC(=O)N(C)C1=O (centres unmarked) [3-methyl-5-ethyl-5-phenylhydantoine, reference compound]	50%	0%	50%	10%	
CCN1C(=O)CON(C(C)=O)C1c1ccccc1 (centres unmarked) [Example 4, 2-Acetyl-3-phenyl-4-ethyl-tetrahydro-1,2,4-oxadiazin-5-one]	20%	0%	20%	0%	
CC(=O)OCN1C(=O)CON(C(C)=O)C1c1ccccc1 (centres unmarked) [Example 6, 2-Acetyl-3-phenyl-4-acetoxymethyl-tetrahydro-1,2,4-oxadiazin-5-one]	40%	0%	60%	70%	
COc1cc(C(=O)OCN2C(=O)CON(C(C)=O)C2c2ccccc2)cc(OC)c1OC (centres unmarked) [Example 19]	0%	0%	0%	30%	
CC(=O)N1OCC(=O)N(COC(=O)c2ccccc2)C1c1ccccc1 (centres unmarked) [Example 18]	40%	0%	70%	40%	
CC(=O)N1OCC(=O)N(C)C1c1ccccc1 (centres unmarked) [Example 10]	20%	0%	20%	40%	
